Data published in patent US20180368393A1, “PRE- AND POST-STORAGE STRESS RESPONSE CONDITIONING” (CPSI HOLDINGS LLC, priority 2017, published 2018).

Key:
[1] = test system: human endothelial cells; assay: Human endothelial cell monolayer survival and repopulation following cryopreservation (Calcein-AM assay); format: cell-based
Method: A series of cryopreservation experiments was conducted on human endothelial and smooth muscle cell suspensions and monolayers to assess the performance of four (4) commercially available cryopreservation solutions: DP6, VS55, VS83, and M22, as well as nine (9) additional solutions: […] Eurocollins (EC) solution was included as a negative control, i.e., no cryoprotective agent (CPA) control, while media+10% DMSO ([…]) is a typical solution (10% DMSO) used in standard controlled rate cryopreservation protocols known to the skilled individual. Unisol is representative of the class of intracellular-like or intracellular-type solutions/media, whereas EC solution and culture media are representative of the class of extracellular-like or extracellular-type solutions/media. Other studies presented herein provide additional examples of intracellular- and extracellular-like solutions; other intracellular- and extracellular-like solutions are similarly useful and are known to those of skill in the art. FIG. 1 illustrates the results of an assessment of human endothelial cell survival following preservation. Monolayers of endothelial cells were frozen or vitrified and thawed in the indicated solutions (control, Uni, […], DP6, VS55, VS83, and […]). Following thawing, samples were diluted in culture media, placed into culture and assessed for viability at 1 day (24 hours) post-thaw and following seven (7) days of recovery using the Calcein-AM assay. […] The Uni and U10 conditions provided outcomes exceeding that of the VS55, VS83 and […] conditions. Therefore, subsequent studies (see, e.g., FIG. 2) focused on Unisol-based solutions with various CPAs and concentrations, in addition to the DP6 commercial cryopreservation solution. […] Monolayers of endothelial cells were frozen or vitrified and thawed in the indicated solutions. […] For pre-freeze (PF), post-warming (PW) and pre/post (P/P) conditioning studies, molecular modulation agents targeting inhibition of apoptosis (Caspase inhibitor IV, 8, 9 and a combination of Caspases 8 and 9), reduction of free-radical damage (resveratrol and NAC), and activation of the unfolded protein response (salubrinal) were employed as supplements in the media 1 hour prior to freezing (pre-freeze condition) or for 1 day following thawing and CPA removal from frozen samples (post-warming condition). Based on outcomes in the studies in Example 1, PF, PW and P/P conditioning were examined in Examples 2-3 using a series of Unisol-based solutions (Uni, U5, U10, U20, UG10, U5G10 and U10G10). […] Patent Application Publication No. US 2016/0097583 A1 (Ser. No. 14/876,087), which is incorporated by reference in its entirety as though fully set forth herein. The freeze and thaw process was slightly modified relative to the disclosure of U.S. Patent Application Publication No. US 2016/0097583 A1 by the addition of a 0.090 inch aluminum plate inserted into the bottom of the 96 well plate to aid in increasing cooling and heating uniformity throughout the plate, thereby reducing the well-to-well variability within the samples. The device was used to thaw the samples, which were frozen in situ in monolayers in standard 96-well tissue culture plates. […] A mitochondrial-mediated apoptotic inhibitor (Caspase 9) and a membrane-mediated apoptotic inhibitor (Caspase 8) were investigated to evaluate the involvement and impact of modulation of various apoptotic induction pathways. Additionally, a pan-Caspase inhibitor (Cas IV) was also investigated to assess the impact of global pathway modulation. As with the viability studies, cell survival and repopulation were assessed using Calcein-AM assays and analyzed using fluorescent microscopy (Zeiss). Survival was determined at 24 hours post-thaw to allow for the manifestation of any delayed onset cell death pathways to be executed. Further, cell recovery was included to evaluate the long term potency and repopulation potential of the various samples. […]

[2] = test system: human smooth muscle cells; assay: Human smooth muscle cell monolayer survival and repopulation following cryopreservation (Calcein-AM assay); format: cell-based
Method: The device was used to thaw the samples, which were frozen in situ in monolayers in standard 96-well tissue culture plates. Samples were thawed from less than −170° C. to about 4° C. in the 96-well plate format in about 5 mins in a dry clean (“sterile”) environment.
The study described in example 3.1 focuses on the collection of cell survival data and the impact of post-thaw conditioning on human smooth muscle cells (SMCs). Specific activities included application of the high throughput monolayer sample cryopreservation protocol and collection of data (survival and cell death) from samples frozen using 6 unique cryopreservation solutions (U5, U10, U20, U5G10, U10G10, DP6) and 6 unique modulators (resveratrol, salubrinal, caspase inhibitors (IV, 8, 9) and NAC). Survival was determined at 24 hours post-thaw to allow for the manifestation of any delayed onset cell death pathways to be executed. Further, cell recovery was included to evaluate the long term potency and repopulation potential of the various samples.
A series of experiments was conducted to evaluate the performance of several solutions (U5, U10, U20, U5G10, U10G10 and DP6) as well as the impact of pre-freeze (PF) and post-warming (PW) conditioning with the apoptotic inhibitors Caspase 8, Caspase 9 and Caspase IV inhibitors. Cell samples were processed using the monolayer CP protocol and analyzed following 24 hours to 7 days post thaw for survival and recovery. These experiments were conducted to evaluate the impact of molecular modulators (inhibitors) during pre-freeze or post-thaw recovery on cell survival when added to the media 1 hour prior to or 24 hour following cryopreservation. […] To this end, samples were probed with Calcein-AM, incubated for 30 mins in the dark and then imaged using a Zeiss Axiovert 200 fluorescence microscope and Axiovision software. Images were taken at 24 hours to 7 days post-thaw to allow for assessment of solution and post-thaw conditioning agent performance.
As in previous experiments, the 24 hour time point was used for initial survival assessment, as this time point allows for the manifestation of molecular based cell stress-induced death. This provides a more accurate measure of survival than 0 or 1 hour post-thaw assessment, as is typically used. The 3 day time point was selected to assess re-population potential of any surviving cells as an indicator of long term potency.
For smooth muscle cell pre-freeze (PF) conditioning studies, 1 hour prior to CP addition, culture media was decanted and 100 μL of fresh media supplemented with caspase 8, 9, or IV was added to each respective well. Samples were then incubated at 37° C. for 1 hour, followed by media removal and addition of 100 μL of CP solution to samples followed by cryopreservation as described above. Following preservation, samples were thawed, diluted, and placed into culture. Following 24 hours recovery, cell viability was assessed.
For smooth muscle cell post-warming (PW) conditioning studies, following thawing and cryopreservation, CP solution was removed or diluted with culture media supplemented with caspase 8, 9, or IV. FIG. 18 illustrates the impact of apoptotic inhibition post-freeze conditioning on human smooth muscle cell survival 1 day following cryopreservation with and without reduced CPA.
For P/P conditioning studies, 1 hour prior to CP addition, culture media was decanted and 100 μL of fresh media supplement with caspase 8, 9, or IV was added to each respective well.

## CC(=O)N[C@@H](CS)C(=O)O [NAC, n-acetyl cysteine]
[1]; P/P conditioning with NAC, salubrinal or resveratrol, U10G10
  survival: ~60%
[1]; P/P conditioning, U10 and U5G10 CP solutions vs matched non-treated samples
  post-thaw viability: increase in post-thaw viability
[1]; P/P oxidative stress modulator conditioning, U10G10
  day 1 survival increase over non-treated samples: ~2.5 fold
[1]; PF conditioning 1 hour, U10G10
  day 1 survival increase over non-treated samples: ~2 fold
[1]; PW conditioning 24 hours, U10G10
  day 1 survival increase over non-treated samples: ~2 fold
[1]; PW conditioning in combination with various solutions
  post-thaw cell survival or recovery (overall): Broader solution benefit
[1]; PW conditioning with oxidative stress modulators, vs non-treated
  cell recovery / repopulation, 3 days: improved cell recovery
[1]; PW conditioning, U10 and U10G10 solutions, day 1
  increase in survival: ~50%
[2]; P/P conditioning with oxidative stress modulators
  repopulation / recovery at 3 days post-thaw: day 3 recovery reached a monolayer similar to non-treated controls
[2]; P/P conditioning, vs non-conditioned samples
  day 1 cell survival: slight to no improvement in cell survival
[2]; PW conditioning in combination with the other solutions
  post-thaw cell survival or recovery (overall): Broader solution benefit
[2]; PW conditioning with oxidative stress modulators
  cell recovery / repopulation, day 3: improved cell recovery
[2]; PW conditioning, vs non-treated matched samples
  day 1 cell survival: improvement in cell survival
